Here are results for 19 compounds from US20120083476A1, “HETEROARYL-SUBSTITUTED SPIROCYCLIC DIAMINE UREA MODULATORS OF FATTY ACID AMIDE HYDROLASE” (Janssen Pharmaceutica NV, priority 2009, published 2012).

In assay [1] the target is T1, FAAH (Homo sapiens, UniProt O00519).
T1 sequence (O00519 1-579): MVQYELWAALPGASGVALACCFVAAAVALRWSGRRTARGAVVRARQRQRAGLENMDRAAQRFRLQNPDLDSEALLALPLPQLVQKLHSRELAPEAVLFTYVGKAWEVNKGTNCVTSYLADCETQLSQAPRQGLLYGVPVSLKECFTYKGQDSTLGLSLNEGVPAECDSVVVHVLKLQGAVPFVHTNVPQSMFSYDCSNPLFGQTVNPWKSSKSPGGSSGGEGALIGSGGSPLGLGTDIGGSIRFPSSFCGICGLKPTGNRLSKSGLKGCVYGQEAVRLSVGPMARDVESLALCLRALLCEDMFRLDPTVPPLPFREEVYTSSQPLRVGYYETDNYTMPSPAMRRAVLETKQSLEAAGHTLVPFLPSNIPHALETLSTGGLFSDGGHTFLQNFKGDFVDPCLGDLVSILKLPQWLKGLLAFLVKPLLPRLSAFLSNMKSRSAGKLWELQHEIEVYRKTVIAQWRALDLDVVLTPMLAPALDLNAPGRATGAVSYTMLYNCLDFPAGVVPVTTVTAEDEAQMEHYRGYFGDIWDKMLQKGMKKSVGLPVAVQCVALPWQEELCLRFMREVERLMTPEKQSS
In words: Assay Method 1: human FAAH assay (3H-anandamide hydrolysis in cell homogenate). It is filed as biochemical. Also on record: expressed in transfected cells; host or cells: SK-N-MC cells stably transfected with human FAAH cDNA (G418 selection); alternatively T84 cell pellets. The procedure, abridged: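 Homogenates of T84 cells or SK-N-MC cells stably transfected with human FAAH, in pH 9 Tris/EDTA buffer with 0.02% Triton X-100. Incubated 1 h at rt with compound and 80 nM (final) [3H-ethanolamine]-anandamide. Released 3H-ethanolamine separated on charcoal filters and counted by scintillation.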

Assay [2] has as its target T2, Rat FAAH (Rattus norvegicus, UniProt P97612).
T2 construct: expressed in transfected cells; host or cells: SK-N-MC cells stably transfected with rat FAAH cDNA (G418 selection)
T2 sequence (P97612 1-579): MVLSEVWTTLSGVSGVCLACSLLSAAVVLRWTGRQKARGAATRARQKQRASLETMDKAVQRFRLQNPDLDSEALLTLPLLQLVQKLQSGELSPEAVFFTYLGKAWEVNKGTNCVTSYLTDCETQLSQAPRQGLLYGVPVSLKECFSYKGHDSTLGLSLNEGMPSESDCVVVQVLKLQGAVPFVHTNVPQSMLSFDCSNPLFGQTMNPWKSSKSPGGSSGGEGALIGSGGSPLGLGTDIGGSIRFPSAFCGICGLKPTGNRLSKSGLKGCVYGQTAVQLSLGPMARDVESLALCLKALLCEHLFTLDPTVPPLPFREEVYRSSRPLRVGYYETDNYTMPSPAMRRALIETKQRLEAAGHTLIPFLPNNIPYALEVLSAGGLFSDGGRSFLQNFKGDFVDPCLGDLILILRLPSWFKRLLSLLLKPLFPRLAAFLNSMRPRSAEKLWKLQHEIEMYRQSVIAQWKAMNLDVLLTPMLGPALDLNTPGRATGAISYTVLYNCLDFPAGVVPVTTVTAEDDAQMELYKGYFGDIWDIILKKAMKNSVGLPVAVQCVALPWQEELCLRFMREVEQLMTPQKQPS
Put plainly: Assay Method 2: rat FAAH assay (3H-anandamide hydrolysis in cell homogenate). It is filed as biochemical. The procedure, abridged:
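Homogenates of T84 cells or SK-N-MC cells stably transfected with rat FAAH, in pH 9 Tris/EDTA/glycerol/Triton buffer, incubated 1 h at room temperature with 3H-anandamide. Released labeled ethanolamine separated from substrate on activated charcoal and counted by scintillation; values averaged over runs.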

pIC50: −log10 of the molar value. Structures can show the parent of a compound that is named as a salt. Where two headings read alike, the source gives them in different places.

`O=C(Nc1cccc2nonc12)N1CC2(CCN(Cc3cccc(Oc4ccc(Cl)cc4)c3)CC2)C1` [Example 52, 7-[3-(4-Chloro-phenoxy)-benzyl]-2,7-diaza-spiro[3.5]nonane-2-carboxylic acid benzo[1,2,5]oxadiazol-4-ylamide, trifluoroacetic acid salt]: the pIC50 is 6.18 in assay [1] (read-out: Assay 1 IC50) and 6.17 in assay [2] (read-out: Assay 2 IC50).

With `O=C(Nc1cnccc1Cl)N1CC2(CCN(Cc3cccc(Oc4ccc(Cl)cc4)c3)CC2)C1` [Example 53, 7-[3-(4-Chloro-phenoxy)-benzyl]-2,7-diaza-spiro[3.5]nonane-2-carboxylic acid (4-chloro-pyridin-3-yl)-amide, trifluoroacetic acid salt], the pIC50 in assay [1] (read-out: Assay 1 IC50) and in assay [2] (read-out: Assay 2 IC50) was 8.00 each time.

Turning to `O=C(Nc1cccnc1Cl)N1CC2(CCN(Cc3cccc(Oc4ccc(Cl)cc4)c3)CC2)C1` [Example 54, 7-[3-(4-Chloro-phenoxy)-benzyl]-2,7-diaza-spiro[3.5]nonane-2-carboxylic acid (2-chloro-pyridin-3-yl)-amide, trifluoroacetic acid salt], the pIC50 in assay [1] (read-out: Assay 1 IC50) is 6.77; in assay [2] (read-out: Assay 2 IC50), 6.72.

Take `O=C(Nc1ccc(N2CCOCC2)nc1)N1CC2(CCN(Cc3cccc(Oc4ccc(Cl)cc4)c3)CC2)C1` [Example 55, 7-[3-(4-Chloro-phenoxy)-benzyl]-2,7-diaza-spiro[3.5]nonane-2-carboxylic acid (6-morpholin-4-yl-pyridin-3-yl)-amide, trifluoroacetic acid salt]: the pIC50 in assay [1] (read-out: Assay 1 IC50) and in assay [2] (read-out: Assay 2 IC50) was 5.16 each time.

As to `O=C(Nc1cc[nH]n1)N1CC2(CCN(Cc3cccc(Oc4ccc(Cl)cc4)c3)CC2)C1` [Example 56, 7-[3-(4-Chloro-phenoxy)-benzyl]-2,7-diaza-spiro[3.5]nonane-2-carboxylic acid (1H-pyrazol-3-yl)-amide, trifluoroacetic acid salt], the pIC50 in assay [1] (read-out: Assay 1 IC50) is 5.43; in assay [2], 5.78.

For the compound `O=C(Nc1cncc(Cl)c1)N1CC2(CCN(Cc3cccc(Oc4ccc(Cl)cc4)c3)CC2)C1` [Example 57, 7-[3-(4-Chloro-phenoxy)-benzyl]-2,7-diaza-spiro[3.5]nonane-2-carboxylic acid (5-chloro-pyridin-3-yl)-amide, trifluoroacetic acid salt], the pIC50 in assay [1] (read-out: Assay 1 IC50) is 6.59; in assay [2] (read-out: Assay 2 IC50) it was 6.70.

For the compound `O=C(Nc1ccc(F)nc1)N1CC2(CCN(Cc3cccc(Oc4ccc(Cl)cc4)c3)CC2)C1` [Example 58, 7-[3-(4-Chloro-phenoxy)-benzyl]-2,7-diaza-spiro[3.5]nonane-2-carboxylic acid (6-fluoro-pyridin-3-yl)-amide, trifluoroacetic acid salt], the pIC50 in assay [1] (read-out: Assay 1 IC50) is 6.52; in assay [2] (read-out: Assay 2 IC50), 6.16.

In the case of `COc1cc(NC(=O)N2CC3(CCN(Cc4cccc(Oc5ccc(Cl)cc5)c4)CC3)C2)ncn1` [Example 59, 7-[3-(4-Chloro-phenoxy)-benzyl]-2,7-diaza-spiro[3.5]nonane-2-carboxylic acid (6-methoxy-pyrimidin-4-yl)-amide, trifluoroacetic acid salt], the pIC50 is 6.60 in assay [1] (read-out: Assay 1 IC50) and 7.10 in assay [2] (read-out: Assay 2 IC50).

In the case of `O=C(Nc1ccc(Cl)nn1)N1CC2(CCN(Cc3cccc(Oc4ccc(Cl)cc4)c3)CC2)C1` [Example 60, 7-[3-(4-Chloro-phenoxy)-benzyl]-2,7-diaza-spiro[3.5]nonane-2-carboxylic acid (6-chloro-pyridazin-3-yl)-amide, trifluoroacetic acid salt], the pIC50 is 6.52 in assay [1] (read-out: Assay 1 IC50) and 6.92 in assay [2] (read-out: Assay 2 IC50).

Turning to `Cc1cc(NC(=O)N2CC3(CCN(Cc4cccc(Oc5ccc(Cl)cc5)c4)CC3)C2)nn1C` [Example 61, 7-[3-(4-Chloro-phenoxy)-benzyl]-2,7-diaza-spiro[3.5]nonane-2-carboxylic acid (1,5-dimethyl-1H-pyrazol-3-yl)-amide, trifluoroacetic acid salt], the pIC50 in assay [1] (read-out: Assay 1 IC50) and in assay [2] (read-out: Assay 2 IC50) was < 5.00 each time.

On to `Cn1cc(Br)c(NC(=O)N2CC3(CCN(Cc4cccc(Oc5ccc(Cl)cc5)c4)CC3)C2)n1` [Example 62, 7-[3-(4-Chloro-phenoxy)-benzyl]-2,7-diaza-spiro[3.5]nonane-2-carboxylic acid (4-bromo-1-methyl-1H-pyrazol-3-yl)-amide, trifluoroacetic acid salt], for which the pIC50 in assay [1] (read-out: Assay 1 IC50) and in assay [2] (read-out: Assay 2 IC50) was < 5.00 in each case.

`CCn1nccc1NC(=O)N1CC2(CCN(Cc3cccc(Oc4ccc(Cl)cc4)c3)CC2)C1` [Example 63, 7-[3-(4-Chloro-phenoxy)-benzyl]-2,7-diaza-spiro[3.5]nonane-2-carboxylic acid (2-ethyl-2H-pyrazol-3-yl)-amide, trifluoroacetic acid salt]: the pIC50 was 5.84 in assay [1] (read-out: Assay 1 IC50) and 6.30 in assay [2] (read-out: Assay 2 IC50).

In the case of `O=C(Nc1nnn[nH]1)N1CC2(CCN(Cc3cccc(Oc4ccc(Cl)cc4)c3)CC2)C1` [Example 64, 7-[3-(4-Chloro-phenoxy)-benzyl]-2,7-diaza-spiro[3.5]nonane-2-carboxylic acid (2H-tetrazol-5-yl)-amide, trifluoroacetic acid salt], the negative-log IC50 (pIC50) in assay [1] is 5.50; in assay [2] (read-out: Assay 2 IC50), 7.22.

Regarding `Cc1nc2cc(NC(=O)N3CC4(CCN(Cc5cccc(Oc6ccc(Cl)cc6)c5)CC4)C3)ccc2o1` [Example 65, 7-[3-(4-Chloro-phenoxy)-benzyl]-2,7-diaza-spiro[3.5]nonane-2-carboxylic acid (2-methyl-benzooxazol-5-yl)-amide], the pIC50 is 6.62 in assay [1] (read-out: Assay 1 IC50) and 5.97 in assay [2] (read-out: Assay 2 IC50).

On to `O=C(Nc1noc2ncccc12)N1CC2(CCN(Cc3cccc(Oc4ccc(Cl)cc4)c3)CC2)C1` [Example 66, 7-[3-(4-Chloro-phenoxy)-benzyl]-2,7-diaza-spiro[3.5]nonane-2-carboxylic acid isoxazolo[5,4-b]pyridin-3-ylamide, trifluoroacetic acid salt], for which the pIC50 in assay [1] (read-out: Assay 1 IC50) was 6.89; in assay [2] (read-out: Assay 2 IC50) it was 6.22.

On to `O=C(Nc1noc2cccnc12)N1CC2(CCN(Cc3cccc(Oc4ccc(Cl)cc4)c3)CC2)C1` [Example 67, 7-[3-(4-Chloro-phenoxy)-benzyl]-2,7-diaza-spiro[3.5]nonane-2-carboxylic acid isoxazolo[4,5-b]pyridin-3-ylamide, trifluoroacetic acid salt], for which the pIC50 in assay [1] (read-out: Assay 1 IC50) is 6.80; in assay [2] (read-out: Assay 2 IC50) it was 8.00.

On to `O=C(Nc1cccc2cn[nH]c12)N1CC2(CCN(Cc3cccc(Oc4ccc(Cl)cc4)c3)CC2)C1` [Example 68, 7-[3-(4-Chloro-phenoxy)-benzyl]-2,7-diaza-spiro[3.5]nonane-2-carboxylic acid (1H-indazol-7-yl)-amide, trifluoroacetic acid salt], for which the pIC50 in assay [1] (read-out: Assay 1 IC50) and in assay [2] (read-out: Assay 2 IC50) was < 5.00 each time.

In the case of `O=C(Nc1ccc2nccn2c1)N1CC2(CCN(Cc3cccc(Oc4ccc(Cl)cc4)c3)CC2)C1` [Example 69, 7-[3-(4-Chloro-phenoxy)-benzyl]-2,7-diaza-spiro[3.5]nonane-2-carboxylic acid imidazo[1,2-a]pyridin-6-ylamide, trifluoroacetic acid salt], the pIC50 in assay [1] (read-out: Assay 1 IC50) and in assay [2] (read-out: Assay 2 IC50) was < 5.00 in each case.

In the case of `COc1ccc(NC(=O)N2CC3(CCN(Cc4cccc(Oc5ccc(Cl)cc5)c4)CC3)C2)nn1` [Example 70, 7-[3-(4-Chloro-phenoxy)-benzyl]-2,7-diaza-spiro[3.5]nonane-2-carboxylic acid (6-methoxy-pyridazin-3-yl)-amide, trifluoroacetic acid salt], the negative logarithm of the IC50 (pIC50) in assay [1] (read-out: Assay 1 IC50) was 5.52; in assay [2] (read-out: Assay 2 IC50) it was 5.62.

One may read the pIC50 as −log10 of the IC50, conventionally taken in molar units.
